Measurements from patent US20020137929A1, “1 - (3-heterocyclylphenyl) isothiourea, -isourea, -guanidine and -amidine herbicidal agents” (Intellectual Property Department, BASF Aktiengesellschaft, priority 1998, published 2002).

Legend:
AMBEL (Ragweed, Common) [1] = assay: Postemergence herbicidal evaluation; format: in vivo, Ambrosia artemisifolia; conditions: postemergence
Method in brief: (§1)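 Compound is applied as a foliar spray to seedlings about two weeks old, formulated in equal parts acetone and water with 0.5% TWEEN 20 and delivered at 40 psi to give about 0.0156–0.500 kg per hectare. Injury is rated visually 0–9 after four to five weeks.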

CASOB (Sicklepod) [2] = assay: Postemergence herbicidal evaluation; format: in vivo, Cassia obtusifolia; conditions: postemergence
Method in brief: as §1

[3] = tested on: CHEAL (Lambsquarters, Common); assay: Postemergence herbicidal evaluation; format: in vivo, Chenopodium album; conditions: postemergence
Method in brief: as §1

[4] = tested on: IPOHE (Morningglory, Ivyleaf); assay: Postemergence herbicidal evaluation; format: in vivo, Ipomoea hederacea; conditions: postemergence
Method in brief: as §1

ECHCG (Barnyardgrass) = assay: Postemergence herbicidal evaluation; format: in vivo, Echinochloa crus-galli; conditions: postemergence
Method in brief: as §1

[5] = tested on: GLXMAW (Soybean, Williams); assay: Postemergence herbicidal evaluation; format: in vivo, Glycine max, (L.) Merr. cv Williams; conditions: postemergence
Method in brief: as §1

[6] = tested on: TRZAWR (Wheat, Winter, cv Riband); assay: Postemergence herbicidal evaluation; format: in vivo, Triticum aestivum; conditions: postemergence
Method in brief: as §1

ABUTH (Velvetleaf) = assay: Preemergence herbicidal evaluation; format: in vivo, Abutilon theophrasti; conditions: rated 4-5 weeks after treatment
Method in brief: (§2)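 Herbicidal effect scored visually, 0-9, at 4 to 5 weeks against a control; compound applied preemergence by aqueous acetone spray to seeded soil at about 0.0156 to 0.500 kg/ha.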

AMBEL (Ragweed, Common) [7] = assay: Preemergence herbicidal evaluation; format: in vivo, Ambrosia artemisifolia; conditions: rated 4-5 weeks after treatment
Method in brief: as §2

CASOB (Sicklepod) [8] = assay: Preemergence herbicidal evaluation; format: in vivo, Cassia obtusifolia; conditions: rated 4-5 weeks after treatment
Method in brief: as §2

[9] = tested on: CHEAL (Lambsquarters, Common); assay: Preemergence herbicidal evaluation; format: in vivo, Chenopodium album; conditions: rated 4-5 weeks after treatment
Method in brief: as §2

[10] = tested on: IPOHE (Morningglory, Ivyleaf); assay: Preemergence herbicidal evaluation; format: in vivo, Ipomoea hederacea; conditions: rated 4-5 weeks after treatment
Method in brief: as §2

[11] = tested on: GLXMAW (Soybean, Williams); assay: Preemergence herbicidal evaluation; format: in vivo, Glycine max, (L.) Merr. cv Williams; conditions: rated 4-5 weeks after treatment
Method in brief: as §2

ORYSAT (Rice, Tebonnet) = assay: Preemergence herbicidal evaluation; format: in vivo, Oryza sativa, (L.) Tebonnet; conditions: rated 4-5 weeks after treatment
Method in brief: as §2

MOOVA (Monochoria) = assay: Preemergence weed control under flooded paddy conditions; format: in vivo, Monochoria vaginalis; conditions: rated 3-4 weeks after treatment
Method in brief: (§3)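 Seeds or propagules sown in silt loam kept flooded 1.5-3 cm; compounds in 50/50 acetone/water pipetted into flood water at about 0.0313 to 0.500 kg/ha. Greenhouse; visual 0-9 rating versus untreated control 3-4 weeks after treatment.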

[12] = tested on: SAGPY (Arrowhead (Pygmaea)); assay: as above; format: in vivo, Sagittaria pygmaea; conditions: rated 3-4 weeks after treatment
Method in brief: as §3

Molecule CCOC(=O)CN1C(=O)C(CC(=O)O)S/C1=N/c1cc(-n2c(=O)cc(C(F)(F)F)n(C)c2=O)c(F)cc1Cl (stereo not shown) [Compound 16] has an AMBEL herbicidal rating (AMBEL (Ragweed, Common) [1]; rate 0.0157 kg/ha) of 9.0, an AMBEL herbicidal rating (AMBEL (Ragweed, Common) [1]; rate 0.0313 kg/ha) of 8.0 and an AMBEL herbicidal rating (AMBEL (Ragweed, Common) [1]; rate 0.0625 kg/ha) of 9.0. The AMBEL herbicidal rating (AMBEL (Ragweed, Common) [1]; rate 0.1250 kg/ha) was 9.0, the AMBEL herbicidal rating (AMBEL (Ragweed, Common) [1]; rate 0.2500 kg/ha) was 9.0 and the CASOB herbicidal rating (CASOB (Sicklepod) [2]; rate 0.0157 kg/ha) was 9.0. For the same molecule, the CASOB herbicidal rating (CASOB (Sicklepod) [2]; rate 0.0313 kg/ha) was 6.2, the CASOB herbicidal rating (CASOB (Sicklepod) [2]; rate 0.0625 kg/ha) was 8.0 and the CASOB herbicidal rating (CASOB (Sicklepod) [2]; rate 0.1250 kg/ha) was 9.0. For the same molecule, the CASOB herbicidal rating (CASOB (Sicklepod) [2]; rate 0.2500 kg/ha) was 9.0, the CHEAL herbicidal rating ([3]; rate 0.0157 kg/ha) was 9.0 and the CHEAL herbicidal rating ([3]; rate 0.0313 kg/ha) was 8.2. The CHEAL herbicidal rating ([3]; rate 0.0625 kg/ha) was 9.0, the CHEAL herbicidal rating ([3]; rate 0.1250 kg/ha) was 9.0 and the CHEAL herbicidal rating ([3]; rate 0.2500 kg/ha) was 9.0. For the same molecule, the IPOHE herbicidal rating ([4]; rate 0.0157 kg/ha) was 9.0, the IPOHE herbicidal rating ([4]; rate 0.0313 kg/ha) was 9.0 and the IPOHE herbicidal rating ([4]; rate 0.0625 kg/ha) was 9.0. It also gave an IPOHE herbicidal rating ([4]; rate 0.1250 kg/ha) of 9.0, an IPOHE herbicidal rating ([4]; rate 0.2500 kg/ha) of 9.0 and an ECHCG herbicidal rating (ECHCG (Barnyardgrass); rate 0.0157 kg/ha) of 3.0. The ECHCG herbicidal rating (ECHCG (Barnyardgrass); rate 0.0313 kg/ha) was 8.8, the ECHCG herbicidal rating (ECHCG (Barnyardgrass); rate 0.0625 kg/ha) was 9.0 and the ECHCG herbicidal rating (ECHCG (Barnyardgrass); rate 0.1250 kg/ha) was 9.0. For the same molecule, the ECHCG herbicidal rating (ECHCG (Barnyardgrass); rate 0.2500 kg/ha) was 9.0, the GLXMAW herbicidal rating ([5]; rate 0.0157 kg/ha) was 9.0 and the GLXMAW herbicidal rating ([5]; rate 0.0313 kg/ha) was 8.6. The GLXMAW herbicidal rating ([5]; rate 0.0625 kg/ha) was 8.9, the GLXMAW herbicidal rating ([5]; rate 0.1250 kg/ha) was 9.0 and the GLXMAW herbicidal rating ([5]; rate 0.2500 kg/ha) was 9.0. It also gave a TRZAWR herbicidal rating ([6]; rate 0.0157 kg/ha) of 7.5, a TRZAWR herbicidal rating ([6]; rate 0.0313 kg/ha) of 6.5 and a TRZAWR herbicidal rating ([6]; rate 0.0625 kg/ha) of 7.5. The TRZAWR herbicidal rating ([6]; rate 0.1250 kg/ha) was 7.9, the TRZAWR herbicidal rating ([6]; rate 0.2500 kg/ha) was 8.5 and the “ABUTH preemergence herbicidal rating” value (ABUTH (Velvetleaf); rate 0.0156 kg/ha) was 5.6. For the same molecule, the “ABUTH preemergence herbicidal rating” value (ABUTH (Velvetleaf); rate 0.0313 kg/ha) was 8.1, the “ABUTH preemergence herbicidal rating” value (ABUTH (Velvetleaf); rate 0.0625 kg/ha) was 8.8 and the “ABUTH preemergence herbicidal rating” value (ABUTH (Velvetleaf); rate 0.1250 kg/ha) was 8.9. For the same molecule, the “ABUTH preemergence herbicidal rating” value (ABUTH (Velvetleaf); rate 0.2500 kg/ha) was 9.0, the “ABUTH preemergence herbicidal rating” value (ABUTH (Velvetleaf); rate 0.5000 kg/ha) was 9.0 and the “AMBEL preemergence herbicidal rating” value (AMBEL (Ragweed, Common) [7]; rate 0.0156 kg/ha) was 2.3. The “AMBEL preemergence herbicidal rating” value (AMBEL (Ragweed, Common) [7]; rate 0.0313 kg/ha) was 4.5, the “AMBEL preemergence herbicidal rating” value (AMBEL (Ragweed, Common) [7]; rate 0.0625 kg/ha) was 7.8 and the “AMBEL preemergence herbicidal rating” value (AMBEL (Ragweed, Common) [7]; rate 0.1250 kg/ha) was 8.5. The “AMBEL preemergence herbicidal rating” value (AMBEL (Ragweed, Common) [7]; rate 0.2500 kg/ha) was 8.9, the “AMBEL preemergence herbicidal rating” value (AMBEL (Ragweed, Common) [7]; rate 0.5000 kg/ha) was 9.0 and the “CASOB preemergence herbicidal rating” value (CASOB (Sicklepod) [8]; rate 0.0156 kg/ha) was 0.3. For the same molecule, the “CASOB preemergence herbicidal rating” value (CASOB (Sicklepod) [8]; rate 0.0313 kg/ha) was 0.6, the “CASOB preemergence herbicidal rating” value (CASOB (Sicklepod) [8]; rate 0.0625 kg/ha) was 2.7 and the “CASOB preemergence herbicidal rating” value (CASOB (Sicklepod) [8]; rate 0.1250 kg/ha) was 5.3. For the same molecule, the “CASOB preemergence herbicidal rating” value (CASOB (Sicklepod) [8]; rate 0.2500 kg/ha) was 8.3, the “CASOB preemergence herbicidal rating” value (CASOB (Sicklepod) [8]; rate 0.5000 kg/ha) was 9.0 and the “CHEAL preemergence herbicidal rating” value ([9]; rate 0.0156 kg/ha) was 5.7. For the same molecule, the “CHEAL preemergence herbicidal rating” value ([9]; rate 0.0313 kg/ha) was 8.4, the “CHEAL preemergence herbicidal rating” value ([9]; rate 0.0625 kg/ha) was 8.8 and the “CHEAL preemergence herbicidal rating” value ([9]; rate 0.1250 kg/ha) was 9.0. The “CHEAL preemergence herbicidal rating” value ([9]; rate 0.2500 kg/ha) was 9.0, the “CHEAL preemergence herbicidal rating” value ([9]; rate 0.5000 kg/ha) was 9.0 and the “IPOHE preemergence herbicidal rating” value ([10]; rate 0.0156 kg/ha) was 0.9. For the same molecule, the “IPOHE preemergence herbicidal rating” value ([10]; rate 0.0313 kg/ha) was 3.5, the “IPOHE preemergence herbicidal rating” value ([10]; rate 0.0625 kg/ha) was 7.6 and the “IPOHE preemergence herbicidal rating” value ([10]; rate 0.1250 kg/ha) was 8.7. For the same molecule, the “IPOHE preemergence herbicidal rating” value ([10]; rate 0.2500 kg/ha) was 9.0, the “IPOHE preemergence herbicidal rating” value ([10]; rate 0.5000 kg/ha) was 9.0 and the “GLXMAW preemergence herbicidal rating” value ([11]; rate 0.0156 kg/ha) was 0.5. The “GLXMAW preemergence herbicidal rating” value ([11]; rate 0.0313 kg/ha) was 0.7, the “GLXMAW preemergence herbicidal rating” value ([11]; rate 0.0625 kg/ha) was 1.5 and the “GLXMAW preemergence herbicidal rating” value ([11]; rate 0.1250 kg/ha) was 4.5. The “GLXMAW preemergence herbicidal rating” value ([11]; rate 0.2500 kg/ha) was 7.7, the “GLXMAW preemergence herbicidal rating” value ([11]; rate 0.5000 kg/ha) was 9.0 and the “ORYSAT preemergence herbicidal rating” value (ORYSAT (Rice, Tebonnet); rate 0.0156 kg/ha) was 0.1. The “ORYSAT preemergence herbicidal rating” value (ORYSAT (Rice, Tebonnet); rate 0.0313 kg/ha) was 0.3, the “ORYSAT preemergence herbicidal rating” value (ORYSAT (Rice, Tebonnet); rate 0.0625 kg/ha) was 1.0 and the “ORYSAT preemergence herbicidal rating” value (ORYSAT (Rice, Tebonnet); rate 0.1250 kg/ha) was 2.2. For the same molecule, the “ORYSAT preemergence herbicidal rating” value (ORYSAT (Rice, Tebonnet); rate 0.2500 kg/ha) was 4.3, the “ORYSAT preemergence herbicidal rating” value (ORYSAT (Rice, Tebonnet); rate 0.5000 kg/ha) was 6.4 and the “Herbicidal rating MOOVA” value (MOOVA (Monochoria); 0.0313 kg/ha) was 9.0. The “Herbicidal rating MOOVA” value (MOOVA (Monochoria); 0.0625 kg/ha) was 9.0, the “Herbicidal rating MOOVA” value (MOOVA (Monochoria); 0.1250 kg/ha) was 9.0 and the “Herbicidal rating MOOVA” value (MOOVA (Monochoria); 0.2500 kg/ha) was 3.0. For the same molecule, the “Herbicidal rating SAGPY” value ([12]; 0.0313 kg/ha) was 0.0, the “Herbicidal rating SAGPY” value ([12]; 0.0625 kg/ha) was 0.0 and the “Herbicidal rating SAGPY” value ([12]; 0.1250 kg/ha) was 0.0. For the same molecule, the “Herbicidal rating SAGPY” value ([12]; 0.2500 kg/ha) was 0.0.
